Reference: the supplement of paper PMC12463676, “Small-molecule dissolution of stress granules by redox modulation benefits ALS models” (Nature Chemical Biology, 2025)

What was measured:
potassium arsenate = compound: O=[As]([O-])(O)O.[K+] [potassium arsenate]; experiment: thermal stability z-score vs DMSO; higher = more thermally stabilized by treatment; conditions: HeLa; arsenate concentration 1 mM
Method: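 Cellular thermal proteome profiling in HeLa cells treated with 1 mM arsenate for 1 h (DMSO pretreatment), heated to ten temperatures (37-66.3 °C). Soluble protein was quantified by TMT mass spectrometry relative to DMSO controls; the thermal stability score was transformed to a z-score; mean of n = 3 experiments.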

lipoamide = compound: NC(=O)CCCCC1CCSS1 [lipoamide]; experiment: as above; conditions: HeLa, lipoamide concentration 100 µM
Method: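 Cellular thermal proteome profiling in HeLa cells. Cells were treated with 100 µM lipoamide for 1 h, with or without 1 mM arsenate for a further 1 h, then heated to ten temperatures (37-66.3 °C), and soluble protein was quantified by TMT mass spectrometry relative to 0.1% DMSO controls. The thermal stability score (sum of log2 fold changes minus the abundance score) was transformed to a z-score; mean of n = 3 experiments.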

[1] = arsenate co-treatment: 1 mM arsenate 1 h
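Further: each temperature applied for 3 min, abundance score taken as mean log2 fold change at the two lowest temperatures, z-score obtained by mean subtraction and division by SD.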

Chain of UniProt P60891 (P60891 whole entry): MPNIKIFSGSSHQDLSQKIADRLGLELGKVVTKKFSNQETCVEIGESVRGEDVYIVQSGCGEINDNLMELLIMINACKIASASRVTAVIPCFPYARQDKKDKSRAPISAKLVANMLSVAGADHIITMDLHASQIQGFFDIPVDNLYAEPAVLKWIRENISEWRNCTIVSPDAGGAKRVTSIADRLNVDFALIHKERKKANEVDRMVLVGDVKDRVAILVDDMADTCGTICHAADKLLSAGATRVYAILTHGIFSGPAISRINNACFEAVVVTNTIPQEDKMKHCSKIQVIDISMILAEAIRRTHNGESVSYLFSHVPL
Chain of UniProt Q15735 (Q15735 whole entry): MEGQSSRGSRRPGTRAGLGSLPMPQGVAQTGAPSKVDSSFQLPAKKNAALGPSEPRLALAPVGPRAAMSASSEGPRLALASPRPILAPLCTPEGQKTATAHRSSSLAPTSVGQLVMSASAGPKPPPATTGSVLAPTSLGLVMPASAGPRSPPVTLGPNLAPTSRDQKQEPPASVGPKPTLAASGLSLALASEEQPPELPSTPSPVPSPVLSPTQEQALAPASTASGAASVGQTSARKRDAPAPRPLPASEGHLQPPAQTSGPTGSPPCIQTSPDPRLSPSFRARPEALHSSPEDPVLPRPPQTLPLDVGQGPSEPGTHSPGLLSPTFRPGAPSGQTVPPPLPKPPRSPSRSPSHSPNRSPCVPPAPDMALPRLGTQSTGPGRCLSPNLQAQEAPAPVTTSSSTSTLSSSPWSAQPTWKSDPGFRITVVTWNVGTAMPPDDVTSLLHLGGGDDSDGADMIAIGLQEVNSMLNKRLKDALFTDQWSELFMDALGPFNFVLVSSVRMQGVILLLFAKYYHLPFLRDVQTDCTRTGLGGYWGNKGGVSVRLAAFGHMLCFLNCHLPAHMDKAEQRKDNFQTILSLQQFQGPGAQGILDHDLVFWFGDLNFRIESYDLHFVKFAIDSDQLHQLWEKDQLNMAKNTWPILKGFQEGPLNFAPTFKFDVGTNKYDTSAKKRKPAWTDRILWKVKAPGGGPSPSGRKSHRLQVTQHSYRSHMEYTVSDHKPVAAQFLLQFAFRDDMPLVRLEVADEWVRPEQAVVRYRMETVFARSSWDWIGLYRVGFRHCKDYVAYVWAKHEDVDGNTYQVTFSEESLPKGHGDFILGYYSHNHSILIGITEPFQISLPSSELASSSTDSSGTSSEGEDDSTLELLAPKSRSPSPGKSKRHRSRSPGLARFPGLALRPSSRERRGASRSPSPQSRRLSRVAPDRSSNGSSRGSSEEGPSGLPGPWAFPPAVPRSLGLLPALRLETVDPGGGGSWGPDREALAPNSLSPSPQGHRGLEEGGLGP
Chain of UniProt Q8WVB6 (Q8WVB6 whole entry): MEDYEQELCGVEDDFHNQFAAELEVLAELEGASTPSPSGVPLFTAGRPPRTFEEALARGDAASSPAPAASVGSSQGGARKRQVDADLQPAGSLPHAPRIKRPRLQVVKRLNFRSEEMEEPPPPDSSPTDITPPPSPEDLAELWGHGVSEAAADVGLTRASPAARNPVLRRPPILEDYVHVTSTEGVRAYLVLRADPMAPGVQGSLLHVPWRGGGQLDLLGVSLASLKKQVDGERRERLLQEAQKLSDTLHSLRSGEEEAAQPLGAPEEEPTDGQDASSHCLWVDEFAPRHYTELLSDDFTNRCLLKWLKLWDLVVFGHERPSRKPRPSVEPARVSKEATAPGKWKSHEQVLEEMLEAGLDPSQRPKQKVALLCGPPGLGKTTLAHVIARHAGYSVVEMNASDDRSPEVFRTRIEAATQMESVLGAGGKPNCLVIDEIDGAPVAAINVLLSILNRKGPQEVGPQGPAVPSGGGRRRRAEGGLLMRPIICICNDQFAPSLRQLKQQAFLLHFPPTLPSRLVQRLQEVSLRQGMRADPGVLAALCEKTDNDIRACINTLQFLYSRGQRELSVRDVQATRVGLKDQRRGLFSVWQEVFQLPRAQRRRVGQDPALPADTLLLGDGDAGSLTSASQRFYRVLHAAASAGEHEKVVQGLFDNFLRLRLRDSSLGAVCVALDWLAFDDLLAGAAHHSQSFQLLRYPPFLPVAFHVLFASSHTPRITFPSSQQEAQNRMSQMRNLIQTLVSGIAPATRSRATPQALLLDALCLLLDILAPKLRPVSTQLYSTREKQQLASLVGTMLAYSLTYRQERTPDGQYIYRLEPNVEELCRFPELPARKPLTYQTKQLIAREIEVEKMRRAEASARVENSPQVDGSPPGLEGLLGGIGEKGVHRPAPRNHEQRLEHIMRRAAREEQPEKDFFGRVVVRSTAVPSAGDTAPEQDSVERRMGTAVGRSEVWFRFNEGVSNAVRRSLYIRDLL
Chain of UniProt Q01844 (Q01844 whole entry): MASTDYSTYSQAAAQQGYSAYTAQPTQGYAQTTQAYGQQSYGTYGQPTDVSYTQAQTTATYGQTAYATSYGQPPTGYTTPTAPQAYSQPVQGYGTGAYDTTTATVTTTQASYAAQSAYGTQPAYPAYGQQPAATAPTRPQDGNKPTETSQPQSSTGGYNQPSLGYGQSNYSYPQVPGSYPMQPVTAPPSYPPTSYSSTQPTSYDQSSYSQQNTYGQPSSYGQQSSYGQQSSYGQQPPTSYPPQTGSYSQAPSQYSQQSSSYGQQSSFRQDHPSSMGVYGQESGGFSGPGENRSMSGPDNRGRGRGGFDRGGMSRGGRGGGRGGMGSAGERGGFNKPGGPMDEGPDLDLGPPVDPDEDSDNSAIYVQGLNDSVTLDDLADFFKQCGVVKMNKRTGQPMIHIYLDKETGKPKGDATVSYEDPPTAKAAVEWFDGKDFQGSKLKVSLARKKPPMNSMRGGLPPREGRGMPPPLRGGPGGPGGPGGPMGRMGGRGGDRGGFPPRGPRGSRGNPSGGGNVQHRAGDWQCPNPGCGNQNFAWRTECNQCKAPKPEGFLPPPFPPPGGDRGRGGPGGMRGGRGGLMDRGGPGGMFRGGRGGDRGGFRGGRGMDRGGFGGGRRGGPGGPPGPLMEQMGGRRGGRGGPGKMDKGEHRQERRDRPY
Chain of UniProt O75787 (O75787 whole entry): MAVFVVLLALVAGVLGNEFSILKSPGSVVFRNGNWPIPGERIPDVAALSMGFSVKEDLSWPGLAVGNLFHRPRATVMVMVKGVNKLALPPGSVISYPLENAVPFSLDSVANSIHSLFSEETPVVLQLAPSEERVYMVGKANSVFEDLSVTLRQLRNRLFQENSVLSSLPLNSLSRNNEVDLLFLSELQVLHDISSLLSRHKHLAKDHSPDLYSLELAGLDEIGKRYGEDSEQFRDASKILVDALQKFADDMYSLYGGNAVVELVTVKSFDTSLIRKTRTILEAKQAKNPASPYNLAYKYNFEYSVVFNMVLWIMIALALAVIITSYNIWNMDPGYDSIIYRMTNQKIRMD
Chain of UniProt O43432 (O43432 whole entry): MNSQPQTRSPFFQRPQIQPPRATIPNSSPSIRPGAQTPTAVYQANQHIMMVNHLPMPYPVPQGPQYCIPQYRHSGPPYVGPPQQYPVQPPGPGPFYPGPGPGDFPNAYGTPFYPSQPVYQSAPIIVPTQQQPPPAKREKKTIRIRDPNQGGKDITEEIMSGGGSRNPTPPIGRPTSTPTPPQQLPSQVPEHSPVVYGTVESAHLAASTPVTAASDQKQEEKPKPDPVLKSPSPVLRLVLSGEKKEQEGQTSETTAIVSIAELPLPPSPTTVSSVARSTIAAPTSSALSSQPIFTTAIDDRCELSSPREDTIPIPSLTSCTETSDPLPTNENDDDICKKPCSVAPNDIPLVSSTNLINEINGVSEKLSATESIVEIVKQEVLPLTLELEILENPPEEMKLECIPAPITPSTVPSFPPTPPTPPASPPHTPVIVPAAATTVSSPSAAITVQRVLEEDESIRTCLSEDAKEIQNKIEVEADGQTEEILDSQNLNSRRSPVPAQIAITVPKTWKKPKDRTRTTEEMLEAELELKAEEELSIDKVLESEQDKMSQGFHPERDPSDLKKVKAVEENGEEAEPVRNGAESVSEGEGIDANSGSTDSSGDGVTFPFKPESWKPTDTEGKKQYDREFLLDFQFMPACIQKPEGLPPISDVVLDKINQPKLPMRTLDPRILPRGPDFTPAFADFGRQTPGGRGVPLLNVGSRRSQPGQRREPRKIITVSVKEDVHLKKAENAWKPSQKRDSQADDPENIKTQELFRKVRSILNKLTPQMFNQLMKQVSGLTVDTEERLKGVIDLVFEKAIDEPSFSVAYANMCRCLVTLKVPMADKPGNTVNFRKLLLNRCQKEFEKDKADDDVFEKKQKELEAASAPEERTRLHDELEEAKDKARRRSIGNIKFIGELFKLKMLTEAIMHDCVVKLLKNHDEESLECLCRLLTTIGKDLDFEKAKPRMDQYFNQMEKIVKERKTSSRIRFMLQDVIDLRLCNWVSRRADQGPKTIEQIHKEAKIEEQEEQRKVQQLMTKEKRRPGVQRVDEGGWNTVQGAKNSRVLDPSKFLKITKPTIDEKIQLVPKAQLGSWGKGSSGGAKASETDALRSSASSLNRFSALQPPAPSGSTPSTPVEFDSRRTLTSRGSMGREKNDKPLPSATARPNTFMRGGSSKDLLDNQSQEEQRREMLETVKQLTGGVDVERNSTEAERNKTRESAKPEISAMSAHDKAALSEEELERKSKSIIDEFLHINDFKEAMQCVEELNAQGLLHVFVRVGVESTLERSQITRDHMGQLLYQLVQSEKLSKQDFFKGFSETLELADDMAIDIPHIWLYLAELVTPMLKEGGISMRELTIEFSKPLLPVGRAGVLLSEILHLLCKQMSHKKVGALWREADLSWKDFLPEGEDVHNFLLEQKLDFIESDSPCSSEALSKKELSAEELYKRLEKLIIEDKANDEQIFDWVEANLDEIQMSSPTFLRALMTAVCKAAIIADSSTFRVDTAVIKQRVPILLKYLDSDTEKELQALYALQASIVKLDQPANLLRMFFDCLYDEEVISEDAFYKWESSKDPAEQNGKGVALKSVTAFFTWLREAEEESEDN
Chain of UniProt O43805 (O43805 whole entry): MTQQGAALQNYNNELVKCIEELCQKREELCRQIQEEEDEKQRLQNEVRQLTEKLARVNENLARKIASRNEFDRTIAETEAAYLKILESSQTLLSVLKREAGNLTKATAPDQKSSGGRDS

RPL37 (UniProt P61927) showed a thermal stability z-score (potassium arsenate) of -0.915, a thermal stability z-score (lipoamide; [1]) of 0.254 and a thermal stability z-score (lipoamide; arsenate co-treatment: none) of 0.203.

POLR2I (UniProt P36954) gave a thermal stability z-score (potassium arsenate) of -2.41, a thermal stability z-score (lipoamide; [1]) of 1.79 and a thermal stability z-score (lipoamide; arsenate co-treatment: none) of 0.367.

CHTF18 (UniProt Q8WVB6) was tested, and the thermal stability z-score (potassium arsenate) was -0.0702, the thermal stability z-score (lipoamide; [1]) was -0.117 and the thermal stability z-score (lipoamide; arsenate co-treatment: none) was -0.0426.

SSNA1 (UniProt O43805) was tested, and the thermal stability z-score (potassium arsenate) was 1.34, the thermal stability z-score (lipoamide; [1]) was 1.6 and the thermal stability z-score (lipoamide; arsenate co-treatment: none) was 1.39.

Target GTF2I (UniProt P78347) has a thermal stability z-score (potassium arsenate) of -0.472, a thermal stability z-score (lipoamide; [1]) of -0.117 and a thermal stability z-score (lipoamide; arsenate co-treatment: none) of 0.0929.

Work on MTERF3 (UniProt Q96E29) yielded a thermal stability z-score (potassium arsenate) of 0.564, a thermal stability z-score (lipoamide; [1]) of -0.371 and a thermal stability z-score (lipoamide; arsenate co-treatment: none) of 0.034.

Work on EIF4G3 (UniProt O43432) yielded a thermal stability z-score (potassium arsenate) of 0.0581, a thermal stability z-score (lipoamide; [1]) of -0.341 and a thermal stability z-score (lipoamide; arsenate co-treatment: none) of 0.15.

EIF3K (UniProt Q9UBQ5) gave a thermal stability z-score (potassium arsenate) of 0.00475, a thermal stability z-score (lipoamide; [1]) of -0.353 and a thermal stability z-score (lipoamide; arsenate co-treatment: none) of 0.0198.

Work on ATG16L1 (UniProt Q676U5) yielded a thermal stability z-score (potassium arsenate) of -0.533, a thermal stability z-score (lipoamide; [1]) of 0.346 and a thermal stability z-score (lipoamide; arsenate co-treatment: none) of 0.282.

UMPS (UniProt P11172) gave a thermal stability z-score (potassium arsenate) of -1.02, a thermal stability z-score (lipoamide; [1]) of 0.111 and a thermal stability z-score (lipoamide; arsenate co-treatment: none) of 0.297.

Work on ATP2A2 (UniProt P16615) yielded a thermal stability z-score (potassium arsenate) of -0.0158, a thermal stability z-score (lipoamide; [1]) of -1.16 and a thermal stability z-score (lipoamide; arsenate co-treatment: none) of -0.667.

With EWSR1 (UniProt Q01844) the thermal stability z-score (potassium arsenate) was -0.604, the thermal stability z-score (lipoamide; [1]) was 0.0495 and the thermal stability z-score (lipoamide; arsenate co-treatment: none) was 0.235.

SNRPB|SNRPN showed a thermal stability z-score (potassium arsenate) of 0.578, a thermal stability z-score (lipoamide; [1]) of 0.508 and a thermal stability z-score (lipoamide; arsenate co-treatment: none) of 0.162.

With PRPS1 (UniProt P60891) the thermal stability z-score (potassium arsenate) was -1.1, the thermal stability z-score (lipoamide; [1]) was 0.0132 and the thermal stability z-score (lipoamide; arsenate co-treatment: none) was -0.285.

With MAD2L2 (UniProt Q9UI95) the thermal stability z-score (potassium arsenate) was -0.211, the thermal stability z-score (lipoamide; [1]) was -0.137 and the thermal stability z-score (lipoamide; arsenate co-treatment: none) was 0.037.

In the case of ST13 (UniProt P50502), the thermal stability z-score (potassium arsenate) is reported as 0.962, the thermal stability z-score (lipoamide; [1]) is reported as 0.433 and the thermal stability z-score (lipoamide; arsenate co-treatment: none) is reported as 0.404.

Work on TRMT10C (UniProt Q7L0Y3) yielded a thermal stability z-score (potassium arsenate) of 0.226, a thermal stability z-score (lipoamide; [1]) of -0.602 and a thermal stability z-score (lipoamide; arsenate co-treatment: none) of -0.191.

Target KCNAB2 (UniProt Q13303) has a thermal stability z-score (potassium arsenate) of 0.237, a thermal stability z-score (lipoamide; [1]) of 0.221 and a thermal stability z-score (lipoamide; arsenate co-treatment: none) of 0.281.

In the case of IST1 (UniProt P53990), the thermal stability z-score (potassium arsenate) is reported as 0.351, the thermal stability z-score (lipoamide; [1]) is reported as 0.453 and the thermal stability z-score (lipoamide; arsenate co-treatment: none) is reported as 0.367.

For CTAG2 (UniProt O75638), the thermal stability z-score (potassium arsenate) was 0.617, the thermal stability z-score (lipoamide; [1]) was -0.394 and the thermal stability z-score (lipoamide; arsenate co-treatment: none) was 0.0387.

Target FUT11 (UniProt Q495W5) has a thermal stability z-score (potassium arsenate) of 0.00651, a thermal stability z-score (lipoamide; [1]) of -1.71 and a thermal stability z-score (lipoamide; arsenate co-treatment: none) of -0.756.

Target INPP5J (UniProt Q15735) has a thermal stability z-score (potassium arsenate) of -0.471, a thermal stability z-score (lipoamide; [1]) of -0.307 and a thermal stability z-score (lipoamide; arsenate co-treatment: none) of -0.456.

With EPHB4 (UniProt P54760) the thermal stability z-score (potassium arsenate) was 0.295, the thermal stability z-score (lipoamide; [1]) was -0.297 and the thermal stability z-score (lipoamide; arsenate co-treatment: none) was -0.194.

BAIAP2L1 (UniProt Q9UHR4) gave a thermal stability z-score (potassium arsenate) of 0.177, a thermal stability z-score (lipoamide; [1]) of 0.0217 and a thermal stability z-score (lipoamide; arsenate co-treatment: none) of -0.166.

Work on BCAP31 (UniProt P51572) yielded a thermal stability z-score (potassium arsenate) of -0.144, a thermal stability z-score (lipoamide; [1]) of 0.0788 and a thermal stability z-score (lipoamide; arsenate co-treatment: none) of 0.099.

RPS15A (UniProt P62244) gave a thermal stability z-score (potassium arsenate) of -0.776, a thermal stability z-score (lipoamide; [1]) of 0.437 and a thermal stability z-score (lipoamide; arsenate co-treatment: none) of 0.494.

With UQCRB (UniProt P14927) the thermal stability z-score (potassium arsenate) was 0.208, the thermal stability z-score (lipoamide; [1]) was 0.896 and the thermal stability z-score (lipoamide; arsenate co-treatment: none) was 0.847.

EMD (UniProt P50402) gave a thermal stability z-score (potassium arsenate) of -0.405, a thermal stability z-score (lipoamide; [1]) of -0.75 and a thermal stability z-score (lipoamide; arsenate co-treatment: none) of -0.633.

Work on ATP6AP2 (UniProt O75787) yielded a thermal stability z-score (potassium arsenate) of -0.366, a thermal stability z-score (lipoamide; [1]) of -2.63 and a thermal stability z-score (lipoamide; arsenate co-treatment: none) of -2.3.

Work on PIGG (UniProt Q5H8A4) yielded a thermal stability z-score (potassium arsenate) of 0.14, a thermal stability z-score (lipoamide; [1]) of -0.479 and a thermal stability z-score (lipoamide; arsenate co-treatment: none) of -0.752.
